ChEMBL document CHEMBL1201862, “PubChem BioAssay data set” (2004)
Calls of active or inactive are those of the source.

How the values were obtained:
[1] = target: T1, Carboxy-terminal domain RNA polymerase II polypeptide A small phosphatase 1 (Homo sapiens, UniProt Q9GZU7); assay: inhibitors of CTDSP1, concentration-response testing, biochemical assay, absorbance-based, actives from ultra-high-throughput screening (AID 540297); type: functional
T1 sequence (Q9GZU7 whole entry): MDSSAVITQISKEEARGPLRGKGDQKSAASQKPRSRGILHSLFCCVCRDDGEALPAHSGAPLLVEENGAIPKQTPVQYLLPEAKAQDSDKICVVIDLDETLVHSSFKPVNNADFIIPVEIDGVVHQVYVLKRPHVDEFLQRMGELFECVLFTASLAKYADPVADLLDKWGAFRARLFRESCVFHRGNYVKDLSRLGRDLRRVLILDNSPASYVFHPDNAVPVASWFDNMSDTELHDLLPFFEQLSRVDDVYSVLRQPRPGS

[2] = target: T2, Zinc finger protein mex-5 (Caenorhabditis elegans, UniProt Q9XUB2); assay: MEX-5/TCR-2 RNA interaction inhibitors, dose response, biochemical, C. elegans, fluorescence polarization (AID 1960)
T2 sequence (Q9XUB2 whole entry): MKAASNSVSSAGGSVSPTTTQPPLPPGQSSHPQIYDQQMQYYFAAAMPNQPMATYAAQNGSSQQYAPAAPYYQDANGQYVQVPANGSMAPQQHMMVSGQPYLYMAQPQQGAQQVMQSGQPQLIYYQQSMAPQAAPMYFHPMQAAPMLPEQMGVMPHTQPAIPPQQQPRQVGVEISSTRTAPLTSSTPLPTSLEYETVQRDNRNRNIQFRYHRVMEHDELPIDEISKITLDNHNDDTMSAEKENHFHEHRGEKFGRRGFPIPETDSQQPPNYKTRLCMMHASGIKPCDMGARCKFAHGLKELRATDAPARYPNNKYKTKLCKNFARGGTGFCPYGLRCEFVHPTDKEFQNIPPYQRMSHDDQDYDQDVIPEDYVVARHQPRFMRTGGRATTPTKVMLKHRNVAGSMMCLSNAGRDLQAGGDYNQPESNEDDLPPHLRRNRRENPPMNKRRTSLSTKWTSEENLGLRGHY

[3] = target: T3, RNA-binding protein pos-1 (Caenorhabditis elegans, UniProt G5EF15); assay: inhibitors of POS-1/mex-3 RNA binding, dose response, biochemical, fluorescence polarization (AID 1964);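 also: purified POS-1 fused to maltose binding protein made in E. coli; potency of compounds blocking POS-1 binding to fluorescent RNA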
T3 sequence (G5EF15 whole entry): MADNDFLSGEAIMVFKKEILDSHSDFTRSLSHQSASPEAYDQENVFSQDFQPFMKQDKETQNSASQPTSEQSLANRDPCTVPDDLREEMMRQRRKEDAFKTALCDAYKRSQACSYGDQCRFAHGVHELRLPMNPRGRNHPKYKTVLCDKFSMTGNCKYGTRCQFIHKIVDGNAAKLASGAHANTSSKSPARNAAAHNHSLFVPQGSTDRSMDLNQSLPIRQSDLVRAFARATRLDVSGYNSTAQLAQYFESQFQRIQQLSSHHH

[4] = target: T4, Rac GTPase-activating protein 1 (Homo sapiens, UniProt Q9H0H5); assay: MgcRacGAP GTPase-activating activity inhibitors, confirmation, biochemical, ADP Hunter fluorescence, primary and confirmatory (AID 624330); type: functional
T4 sequence (Q9H0H5 whole entry): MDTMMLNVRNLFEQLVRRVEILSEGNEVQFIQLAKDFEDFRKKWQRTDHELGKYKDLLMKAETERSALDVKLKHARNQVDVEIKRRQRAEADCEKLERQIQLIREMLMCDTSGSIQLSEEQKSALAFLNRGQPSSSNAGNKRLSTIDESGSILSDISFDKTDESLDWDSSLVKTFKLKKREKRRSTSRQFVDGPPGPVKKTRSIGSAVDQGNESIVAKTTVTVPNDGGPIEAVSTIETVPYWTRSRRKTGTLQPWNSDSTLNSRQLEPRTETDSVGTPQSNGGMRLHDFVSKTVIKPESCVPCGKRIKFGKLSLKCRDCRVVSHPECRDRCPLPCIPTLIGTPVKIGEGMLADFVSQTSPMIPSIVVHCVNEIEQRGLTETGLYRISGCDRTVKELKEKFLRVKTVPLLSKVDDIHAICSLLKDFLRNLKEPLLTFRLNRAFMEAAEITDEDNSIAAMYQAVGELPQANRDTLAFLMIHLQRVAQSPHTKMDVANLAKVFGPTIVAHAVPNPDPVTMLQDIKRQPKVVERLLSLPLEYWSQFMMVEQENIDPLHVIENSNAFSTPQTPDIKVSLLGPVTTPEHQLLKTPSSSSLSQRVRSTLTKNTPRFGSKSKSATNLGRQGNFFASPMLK

[5] = THP-1 cell cytotoxicity, dose response, cytotoxicity control for Vif-APOBEC3G degradation inhibitor project, THP-1 cells (AID 1117359); type: functional; details: Human immunodeficiency virus 1, THP-1
[6] = target: T5, High affinity choline transporter 1 (Homo sapiens, UniProt Q9GZV3); assay: CHT inhibitors, dose response, cell-based, 5-point CRC, membrane potential dye (AID 504840); type: functional
T5 sequence (Q9GZV3 whole entry): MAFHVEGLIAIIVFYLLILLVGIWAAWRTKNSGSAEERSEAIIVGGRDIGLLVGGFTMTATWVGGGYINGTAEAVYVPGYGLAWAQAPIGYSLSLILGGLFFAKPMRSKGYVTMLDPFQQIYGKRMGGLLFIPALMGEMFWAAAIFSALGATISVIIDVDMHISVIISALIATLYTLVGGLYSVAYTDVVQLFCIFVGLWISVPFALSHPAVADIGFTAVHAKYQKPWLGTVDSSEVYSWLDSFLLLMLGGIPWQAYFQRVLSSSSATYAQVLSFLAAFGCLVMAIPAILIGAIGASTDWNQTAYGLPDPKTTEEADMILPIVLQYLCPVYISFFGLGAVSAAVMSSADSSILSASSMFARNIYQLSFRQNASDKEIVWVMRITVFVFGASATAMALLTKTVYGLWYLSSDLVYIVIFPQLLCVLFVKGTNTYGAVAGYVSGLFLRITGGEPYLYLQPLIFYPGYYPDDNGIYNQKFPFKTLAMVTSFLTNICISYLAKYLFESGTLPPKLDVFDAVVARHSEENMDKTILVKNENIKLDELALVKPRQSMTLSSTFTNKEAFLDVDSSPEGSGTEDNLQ

Bcl-2-related protein A1 = target: T6, Bcl-2-related protein A1 (Mus musculus, UniProt Q07440); type: functional;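 also: confirmatory dose–response counterscreen on Bfl-1, used to check hits from a UBC13 polyubiquitin inhibitor campaign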
T6 sequence (Q07440 whole entry): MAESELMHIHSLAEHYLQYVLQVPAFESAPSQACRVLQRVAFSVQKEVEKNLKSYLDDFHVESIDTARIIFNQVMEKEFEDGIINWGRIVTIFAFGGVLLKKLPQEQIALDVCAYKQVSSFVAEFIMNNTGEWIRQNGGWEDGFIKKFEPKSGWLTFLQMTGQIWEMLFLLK

[7] = target: T7, Ubiquitin-conjugating enzyme E2 N (Homo sapiens, UniProt P61088); type: functional
T7 sequence (P61088 whole entry): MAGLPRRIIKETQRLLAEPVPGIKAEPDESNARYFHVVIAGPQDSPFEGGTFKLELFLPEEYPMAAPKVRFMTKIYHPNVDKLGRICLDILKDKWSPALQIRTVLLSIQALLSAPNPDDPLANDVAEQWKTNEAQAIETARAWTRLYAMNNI

[8] = target: T7, Ubiquitin-conjugating enzyme E2 N; type: functional; remark: listed apart in the source
[9] = target: Protein-tyrosine kinase 2-beta (Homo sapiens, UniProt Q14289);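 also: potency of inhibitors of PYK2 kinase phosphorylation of poly-GT substrate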
Sequence of Protein-tyrosine kinase 2-beta (Q14289 whole entry): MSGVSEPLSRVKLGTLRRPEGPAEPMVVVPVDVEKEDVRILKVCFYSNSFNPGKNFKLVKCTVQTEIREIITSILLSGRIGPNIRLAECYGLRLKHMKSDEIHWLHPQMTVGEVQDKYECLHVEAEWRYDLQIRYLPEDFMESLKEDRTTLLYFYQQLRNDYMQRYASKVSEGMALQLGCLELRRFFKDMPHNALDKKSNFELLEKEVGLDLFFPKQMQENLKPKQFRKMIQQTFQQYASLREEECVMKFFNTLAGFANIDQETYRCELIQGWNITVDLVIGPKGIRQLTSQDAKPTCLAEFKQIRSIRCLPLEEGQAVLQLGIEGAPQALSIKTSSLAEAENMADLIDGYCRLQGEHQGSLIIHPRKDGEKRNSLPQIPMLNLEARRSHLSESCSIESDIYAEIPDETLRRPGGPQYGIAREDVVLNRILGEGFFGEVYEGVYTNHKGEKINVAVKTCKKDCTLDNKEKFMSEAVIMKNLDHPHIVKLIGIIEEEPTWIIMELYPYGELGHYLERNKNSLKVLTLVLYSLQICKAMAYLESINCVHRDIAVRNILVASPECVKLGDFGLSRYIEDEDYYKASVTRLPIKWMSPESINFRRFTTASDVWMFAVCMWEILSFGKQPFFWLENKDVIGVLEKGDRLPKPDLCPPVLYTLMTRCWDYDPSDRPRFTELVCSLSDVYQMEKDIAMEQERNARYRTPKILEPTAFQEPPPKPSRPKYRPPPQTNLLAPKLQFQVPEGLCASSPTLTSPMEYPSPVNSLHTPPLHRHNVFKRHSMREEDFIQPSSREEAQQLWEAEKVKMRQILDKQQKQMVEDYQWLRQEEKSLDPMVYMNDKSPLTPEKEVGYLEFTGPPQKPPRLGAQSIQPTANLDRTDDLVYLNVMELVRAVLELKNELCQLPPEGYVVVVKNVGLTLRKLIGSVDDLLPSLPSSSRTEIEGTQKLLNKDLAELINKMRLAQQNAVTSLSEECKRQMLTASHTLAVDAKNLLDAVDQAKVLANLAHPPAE

Estrogen receptor beta = Estrogen receptor beta (Homo sapiens, UniProt Q92731); assay: ERβ–SRC-3 coactivator interaction inhibitors, confirmation, orthogonal assay, biochemical, ELISA, streptavidin-HRP readout (AID 1060)
Sequence of Estrogen receptor beta (Q92731 whole entry): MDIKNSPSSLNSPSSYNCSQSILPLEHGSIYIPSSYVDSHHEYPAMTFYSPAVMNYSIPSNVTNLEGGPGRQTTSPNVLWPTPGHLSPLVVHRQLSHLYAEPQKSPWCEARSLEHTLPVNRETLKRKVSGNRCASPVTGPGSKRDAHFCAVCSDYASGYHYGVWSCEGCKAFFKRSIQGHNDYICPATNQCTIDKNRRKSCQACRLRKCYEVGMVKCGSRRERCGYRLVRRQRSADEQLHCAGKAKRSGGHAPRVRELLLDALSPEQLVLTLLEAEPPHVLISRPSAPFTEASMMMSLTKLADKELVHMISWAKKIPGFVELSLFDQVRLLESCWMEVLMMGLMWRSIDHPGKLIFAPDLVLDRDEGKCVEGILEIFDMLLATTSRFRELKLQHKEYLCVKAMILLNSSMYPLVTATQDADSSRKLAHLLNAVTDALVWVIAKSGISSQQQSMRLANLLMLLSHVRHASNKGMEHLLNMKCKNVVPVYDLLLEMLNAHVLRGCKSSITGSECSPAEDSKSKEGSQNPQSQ

Escherichia coli = assay: microbe, parasite or virus in culture
[10] = target: T8, Apoptotic protease-activating factor 1 (Homo sapiens, UniProt O14727); type: functional
T8 sequence (O14727 whole entry): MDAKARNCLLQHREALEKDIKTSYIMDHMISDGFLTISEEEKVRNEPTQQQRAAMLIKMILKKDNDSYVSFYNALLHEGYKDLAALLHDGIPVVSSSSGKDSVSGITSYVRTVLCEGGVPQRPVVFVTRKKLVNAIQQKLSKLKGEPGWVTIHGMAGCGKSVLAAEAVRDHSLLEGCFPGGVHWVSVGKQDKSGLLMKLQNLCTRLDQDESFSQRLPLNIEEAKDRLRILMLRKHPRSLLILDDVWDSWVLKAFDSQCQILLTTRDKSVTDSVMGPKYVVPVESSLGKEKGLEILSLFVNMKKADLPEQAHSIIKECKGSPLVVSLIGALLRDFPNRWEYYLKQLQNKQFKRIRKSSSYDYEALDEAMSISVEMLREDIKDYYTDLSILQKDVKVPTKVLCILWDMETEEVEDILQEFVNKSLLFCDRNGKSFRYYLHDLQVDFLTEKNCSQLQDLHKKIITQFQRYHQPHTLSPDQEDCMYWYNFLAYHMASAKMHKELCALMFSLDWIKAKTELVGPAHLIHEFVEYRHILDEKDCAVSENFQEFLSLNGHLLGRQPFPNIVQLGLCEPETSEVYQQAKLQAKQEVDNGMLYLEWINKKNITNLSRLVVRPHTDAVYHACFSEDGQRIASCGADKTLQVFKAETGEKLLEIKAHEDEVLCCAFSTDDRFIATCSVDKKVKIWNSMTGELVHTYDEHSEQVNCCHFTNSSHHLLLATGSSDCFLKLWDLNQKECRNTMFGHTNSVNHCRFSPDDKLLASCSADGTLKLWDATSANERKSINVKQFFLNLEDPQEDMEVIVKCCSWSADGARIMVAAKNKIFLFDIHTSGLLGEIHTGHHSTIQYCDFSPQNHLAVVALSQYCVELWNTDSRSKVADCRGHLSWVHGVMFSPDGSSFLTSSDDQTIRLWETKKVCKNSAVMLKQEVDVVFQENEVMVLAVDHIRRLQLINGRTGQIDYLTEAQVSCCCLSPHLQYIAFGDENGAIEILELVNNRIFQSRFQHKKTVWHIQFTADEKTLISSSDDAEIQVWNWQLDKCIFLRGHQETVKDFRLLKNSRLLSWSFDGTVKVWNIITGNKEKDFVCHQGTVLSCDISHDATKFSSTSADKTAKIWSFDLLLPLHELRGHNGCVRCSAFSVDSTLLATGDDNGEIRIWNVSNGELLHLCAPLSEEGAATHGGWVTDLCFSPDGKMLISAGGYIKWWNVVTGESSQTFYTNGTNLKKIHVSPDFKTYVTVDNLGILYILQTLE

[11] = target: Voltage-gated N-type calcium channel alpha-1B subunit/Amyloid beta A4 precursor protein-binding family A member 1 (Homo sapiens, UniProt Q00975+Q02410); type: protein assay
Sequence of Voltage-gated N-type calcium channel alpha-1B subunit/Amyloid beta A4 precursor protein-binding family A member 1 (Q00975 whole entry): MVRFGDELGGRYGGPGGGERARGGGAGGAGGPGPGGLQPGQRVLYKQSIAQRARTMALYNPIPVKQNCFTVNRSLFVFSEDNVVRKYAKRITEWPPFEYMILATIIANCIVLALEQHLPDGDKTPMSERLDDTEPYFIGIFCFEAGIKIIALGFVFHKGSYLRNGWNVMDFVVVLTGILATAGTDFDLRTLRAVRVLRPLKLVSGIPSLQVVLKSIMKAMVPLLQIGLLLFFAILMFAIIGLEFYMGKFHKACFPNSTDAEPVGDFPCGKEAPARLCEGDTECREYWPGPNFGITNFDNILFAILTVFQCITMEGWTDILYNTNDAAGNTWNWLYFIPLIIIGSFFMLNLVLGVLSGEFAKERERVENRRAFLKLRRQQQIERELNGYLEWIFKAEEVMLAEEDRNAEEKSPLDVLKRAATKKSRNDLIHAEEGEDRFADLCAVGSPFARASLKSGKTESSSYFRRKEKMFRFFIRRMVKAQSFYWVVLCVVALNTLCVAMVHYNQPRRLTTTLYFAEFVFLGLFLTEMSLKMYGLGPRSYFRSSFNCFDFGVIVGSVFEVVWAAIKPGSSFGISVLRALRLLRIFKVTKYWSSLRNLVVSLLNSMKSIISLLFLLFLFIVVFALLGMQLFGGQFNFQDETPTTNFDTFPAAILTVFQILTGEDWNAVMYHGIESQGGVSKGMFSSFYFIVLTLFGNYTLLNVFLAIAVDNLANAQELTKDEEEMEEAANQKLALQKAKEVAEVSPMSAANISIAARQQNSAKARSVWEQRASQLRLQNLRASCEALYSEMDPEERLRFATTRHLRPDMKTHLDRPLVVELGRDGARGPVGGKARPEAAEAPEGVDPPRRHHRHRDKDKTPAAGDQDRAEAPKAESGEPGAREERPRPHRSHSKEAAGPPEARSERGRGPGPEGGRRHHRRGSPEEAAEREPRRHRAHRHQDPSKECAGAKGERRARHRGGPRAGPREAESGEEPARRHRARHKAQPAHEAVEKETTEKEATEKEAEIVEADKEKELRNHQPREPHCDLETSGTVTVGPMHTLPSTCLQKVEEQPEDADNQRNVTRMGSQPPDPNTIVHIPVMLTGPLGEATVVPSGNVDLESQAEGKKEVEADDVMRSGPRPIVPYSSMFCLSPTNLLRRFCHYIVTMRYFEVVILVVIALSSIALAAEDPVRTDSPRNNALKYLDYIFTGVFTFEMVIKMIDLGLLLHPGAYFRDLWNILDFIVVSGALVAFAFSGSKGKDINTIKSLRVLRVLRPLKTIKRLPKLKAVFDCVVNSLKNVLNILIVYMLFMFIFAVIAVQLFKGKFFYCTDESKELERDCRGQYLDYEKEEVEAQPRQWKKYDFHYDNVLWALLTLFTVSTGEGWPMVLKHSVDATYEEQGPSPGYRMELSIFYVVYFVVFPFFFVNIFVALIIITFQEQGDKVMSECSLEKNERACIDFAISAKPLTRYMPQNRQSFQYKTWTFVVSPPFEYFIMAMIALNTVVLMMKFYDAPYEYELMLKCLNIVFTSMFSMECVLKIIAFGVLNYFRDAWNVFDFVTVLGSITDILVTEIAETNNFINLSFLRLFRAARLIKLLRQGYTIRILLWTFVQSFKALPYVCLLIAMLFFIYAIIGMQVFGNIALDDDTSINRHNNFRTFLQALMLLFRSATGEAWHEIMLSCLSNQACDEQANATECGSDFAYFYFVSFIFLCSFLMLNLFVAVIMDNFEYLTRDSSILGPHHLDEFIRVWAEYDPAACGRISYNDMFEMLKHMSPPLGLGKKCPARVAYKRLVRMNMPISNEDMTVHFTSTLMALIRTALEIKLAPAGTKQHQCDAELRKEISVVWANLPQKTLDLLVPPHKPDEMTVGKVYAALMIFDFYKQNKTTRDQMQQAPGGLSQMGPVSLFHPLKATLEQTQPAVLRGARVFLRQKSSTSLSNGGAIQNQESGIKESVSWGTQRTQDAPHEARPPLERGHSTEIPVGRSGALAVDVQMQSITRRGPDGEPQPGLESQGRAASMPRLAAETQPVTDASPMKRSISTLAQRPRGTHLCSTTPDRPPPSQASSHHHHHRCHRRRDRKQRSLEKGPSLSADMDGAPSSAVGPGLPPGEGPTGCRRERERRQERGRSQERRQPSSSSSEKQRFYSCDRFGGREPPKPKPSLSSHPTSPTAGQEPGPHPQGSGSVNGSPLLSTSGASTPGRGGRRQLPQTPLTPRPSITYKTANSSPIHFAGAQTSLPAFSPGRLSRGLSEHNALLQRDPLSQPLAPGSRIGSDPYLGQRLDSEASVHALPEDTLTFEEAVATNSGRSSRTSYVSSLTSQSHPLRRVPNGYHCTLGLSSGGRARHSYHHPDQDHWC
Sequence of Voltage-gated N-type calcium channel alpha-1B subunit/Amyloid beta A4 precursor protein-binding family A member 1 (Q02410 whole entry): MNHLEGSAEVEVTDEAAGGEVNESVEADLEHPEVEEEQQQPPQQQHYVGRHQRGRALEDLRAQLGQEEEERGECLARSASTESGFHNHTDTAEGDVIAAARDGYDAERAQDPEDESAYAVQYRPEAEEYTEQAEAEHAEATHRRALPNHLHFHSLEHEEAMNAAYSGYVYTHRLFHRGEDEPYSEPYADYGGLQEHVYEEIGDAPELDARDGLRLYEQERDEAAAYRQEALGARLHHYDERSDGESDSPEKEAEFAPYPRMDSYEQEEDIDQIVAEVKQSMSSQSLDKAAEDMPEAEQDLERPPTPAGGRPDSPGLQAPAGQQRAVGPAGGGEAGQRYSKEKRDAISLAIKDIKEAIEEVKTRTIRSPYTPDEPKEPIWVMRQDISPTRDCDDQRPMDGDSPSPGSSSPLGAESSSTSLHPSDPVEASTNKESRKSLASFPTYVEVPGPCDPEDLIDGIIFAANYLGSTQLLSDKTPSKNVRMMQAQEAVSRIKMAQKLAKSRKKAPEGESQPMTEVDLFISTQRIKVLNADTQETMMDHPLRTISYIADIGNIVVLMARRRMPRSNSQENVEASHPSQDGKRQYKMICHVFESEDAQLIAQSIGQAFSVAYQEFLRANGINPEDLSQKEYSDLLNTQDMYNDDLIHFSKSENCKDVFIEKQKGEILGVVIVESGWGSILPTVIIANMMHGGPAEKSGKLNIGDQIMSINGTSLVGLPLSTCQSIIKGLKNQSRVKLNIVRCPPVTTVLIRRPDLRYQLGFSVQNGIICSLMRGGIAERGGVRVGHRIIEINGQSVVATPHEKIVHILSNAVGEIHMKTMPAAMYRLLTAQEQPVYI

[12] = A549 cell cytotoxicity, dose response, cytotoxicity control, plate reader, cherry-pick, antagonist series (AID 743412); type: functional, cell-based
[13] = MC4R antagonists, dose response, counter-screen for LGR2 antagonist project, cell-based, plate reader, cherry pick (AID 743444); type: functional;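 also: transfected HEK 293 cells stimulated with alpha-MSH peptide; potency of inhibitors of the alpha-MSH evoked signal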

Cn1cccc1/C=C1\C(=O)NC(=O)N(Cc2ccco2)C1=O
IC50 [1]: 4.88 µM (active)
EC50 [2]: 57.7 µM (active)
EC50 [3]: > 300 µM (not active)
IC50 [4]: 116 µM (active)
CC50 [5]: > 40 µM (active)

Clc1ccc(CSCCc2ccncc2)cc1
CC50 [5]: > 40 µM (active)

Cc1ccc(-c2nnc(OCC3CCCO3)c3ccccc23)cc1 (stereo unspecified)
IC50 [6]: 14.5 µM (active)

CC1CCN(S(=O)(=O)c2ccc3c(c2)N(CC(=O)NCCCN2CCCCC2C)C(=O)CS3)CC1 (stereo unspecified)
IC50 [6]: 13 µM (active)

Cc1c(NC(=O)CCCCCN2C(=O)c3ccccc3C2=O)c(=O)n(-c2ccccc2)n1C
IC50 (Bcl-2-related protein A1): > 20 µM (inactive)
IC50 [7]: 1.23 µM (active)
IC50 [8]: 0.709 µM (active)

O=C(OCC(=O)N1CCN(C(=O)c2ccco2)CC1)c1cc(-c2ccc(Cl)c(Cl)c2Cl)nc2ccccc12
IC50 [9]: 5.94 µM (active)

N#Cc1c(NC(=O)CN2CCCCC2)sc2c1CCC2
IC50 (Estrogen receptor beta): 0.0561 µM (not active)

CC(C)c1ccc(NC(=O)C[n+]2ccn(C3=C([O-])c4ccccc4C3=O)c2)cc1
IC50 (Bcl-2-related protein A1): > 20 µM (inactive)
IC50 [7]: 11.8 µM (active)
IC50 [8]: 17.8 µM (active)

Cc1ccc(NC(=O)COC(=O)CCC(=O)c2cccs2)c(C)c1
AC50 (Escherichia coli): > 150 µM (inactive)

COc1ccc(CCN=C(N)NS(=O)(=O)c2cccs2)cc1
AC50 (Escherichia coli): 112 µM (active)

CCCN(CC(=O)Nc1ccccc1OC)C(=O)CSc1ccc(Br)cc1C
IC50 [10]: 48.4 µM (active)
CC50 [5]: > 40 µM (active)

CCOc1ccc(NC(=O)Cn2cncc2-c2ccc([N+](=O)[O-])cc2)cc1
IC50 [11]: 5.93 µM (active)

C#CCOCCOCCOCCNc1nc(N2CCN(C(=O)[C@H](CCCCN)n3cc(CN)nn3)CC2)nc(N2CCN(C(=O)[C@H](CCCN=C(N)N)n3cc(C(N)[C@H](C)CC)nn3)CC2)n1 (stereo partly specified)
IC50 (Bcl-2-related protein A1): > 20 µM (inactive)
IC50 [7]: 12 µM (active)
IC50 [8]: 7.94 µM (active)

O=C(C1CC(=O)N(C2CCCC2)C1)N1CCN(c2ccc(F)cc2)CC1 (stereo unspecified)
AC50 (Escherichia coli): 31.8 µM (active)

COc1ccc(S(=O)(=O)Nc2ccc3c(c2)C(=O)N([C@@H](C)CO)C[C@@H](C)[C@H](CN(C)C(=O)Nc2cccc4ccccc24)OCCCC[C@H](C)O3)cc1
AC50 [12]: > 52 µM (inactive)
AC50 [13]: 2.05 µM (active)

O=C(N/N=C/c1ccsc1)c1c[nH]c2ccccc12
IC50 [6]: 3.8 µM (active)

COc1ccccc1NC(=O)c1c(/N=C/c2ccccc2O)cnn1C
IC50 (Bcl-2-related protein A1): > 20 µM (inactive)
IC50 [7]: 10.5 µM (active)
IC50 [8]: 10.4 µM (active)
